How the values were obtained:
[1] = test system: two-spotted spider mites (Tetranychus urticae); assay: Acaricidal test for two-spotted spider mites; format: in vivo; conditions: 500 ppm solution sprayed 2 ml/cup on larvae on kidney bean leaf discs; 25° C.; after 96 hours
Experimental: [Test Example 1] Acaricidal Test For Two-spotted Spider Mites (Tetranychus urticae)
The leaves of kidney bean plants were punched into 3.0 cm-diameter discs, using a leaf punch, and put onto moistured filter paper in a 7 cm-diameter styrol cup. Ten larvae of two-spotted spider mites (Tetranychus urticae) were put to each leaf. A 5% emulsion (or 25% wettable powder) of a compound of the invention was diluted with water containing a spreading agent to give a 500 ppm solution of the compound. The solution was sprayed over each cup in an amount of 2 ml/cup, using a rotary sprinkler, and the cups were stored in a thermostatic chamber at 25° C. After 96 hours passed, the mites in each cup were observed, and mortality of the mites was determined according to the following equation. Each compound was tested in that manner for two groups of dishes.
Mortality (%)=[number of insect killed/(number of insect killed+number of living insect)]×100

[2] = test system: citrus red mite (Panonychus citri); assay: Residual effect test for citrus red mite; format: in vivo; conditions: Table 4, spray solution 100 ppm, 48 hours
Experimental: Residual Effect Test for Citrus Red Mite (Panonychus citri)
A 5% emulsion (or 25% wettable powder) of a compound of the invention was diluted with water containing a spreading agent to give a solution of the compound with prescribed concentration. The solution was sprayed over each orange planted in a pot in an amount of 250 ml/pot, using a rotary sprinkler, and the pot were left in the open air. After the prescribed days, the leaves of orange plants were punched into 3.0 cm-diameter discs, using a leaf punch, and put onto moistured filter paper in a 7 cm-diameter styrol cup. Ten larvae of citrus red mite (Panonychus citri) were put to each leaf. Then, the cups were stored in a thermostatic chamber at 25° C. After 48 hours passed, the mites in each cup were observed, and mortality of the mites was determined according to the same equation as in Test Example 1. Each compound was tested in that manner for four groups of dishes.
In the test, the following Compound A described in WO97/40009 was used as a comparative compound. [drawing 35]

Work on `COc1ccccc1-n1nc(C)c(C(C#N)=C(OC(=O)C(C)(C)C)c2c(Cl)c(C)nn2C)n1` (mixture of isomers) [compound 62] yielded a mortality [1] of no less than 80%.

For `Cc1nn(-c2ccccc2)nc1/C(C#N)=C(\OC(=O)C(C)(C)C)c1c(C(F)(F)F)nn(C)c1Cl` [Compound A], the mortality at 100 ppm ([2]; 2 days left in the open air after spraying) was 17.5% and the mortality at 100 ppm ([2]; 4 days left in the open air after spraying) was 40%.

Work on `Cc1nc(C)c(C(O)=C(C#N)c2nn(-c3ccccc3)nc2C)s1` [Compound No. 20, 3-(2,4-Dimethylthiazol-5-yl)-3-hydroxy-2-(5-methyl-2-phenyl-1,2,3-triazol4-yl)acrylonitrile] yielded a melting point of 117 to 118 °C.
